Target: T1, NostocER1 (Nostoc sp. PCC 7120 = FACHB-418, UniProt A0ACD6B956)
T1 construct: gene all1865; full-length gene, pET28a(+) based vector (NcoI/BamHI), co-expressed with M. vaccae FDH in E. coli BL21(DE3)
Assay: whole-cell biotransformation, chiral GC-FID
Assay type: cell-based
Conditions: E. coli BL21(DE3) whole cells with FDH; 300 mM (R)-carvone, 450 mM formate, 0.1 mM NAD+, XAD4 resin, pH 7.0, 25 °C; product (2R,5R)-dihydrocarvone

T1 sequence (A0ACD6B956 38-402): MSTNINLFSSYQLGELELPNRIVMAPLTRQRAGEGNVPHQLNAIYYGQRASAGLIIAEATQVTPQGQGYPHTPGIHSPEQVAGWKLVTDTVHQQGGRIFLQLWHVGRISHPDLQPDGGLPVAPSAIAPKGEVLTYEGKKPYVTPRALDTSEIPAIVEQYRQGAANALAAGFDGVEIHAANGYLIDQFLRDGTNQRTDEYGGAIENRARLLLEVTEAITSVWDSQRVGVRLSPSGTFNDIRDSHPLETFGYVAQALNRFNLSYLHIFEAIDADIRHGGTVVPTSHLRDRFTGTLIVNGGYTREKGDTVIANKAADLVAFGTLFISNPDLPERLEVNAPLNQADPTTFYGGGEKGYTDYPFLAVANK

## C=C(C)[C@@H]1CC=C(C)C(=O)C1 [compound 1, (R)-carvone]
  whole-cell biotransformation, chiral GC-FID: E. coli cells with the NostocER1 wild type possessed the slowest of all determined product formation rates

Reference: PMC6681004, “Asymmetric Whole-Cell Bio-Reductions of (R)-Carvone Using Optimized Ene Reductases” (Molecules, 2019)
